Results on four molecules are retold here after ChEMBL document CHEMBL2057131, “Novel steroid inhibitors of glucose 6-phosphate dehydrogenase” (J Med Chem, 2012).

Data set [1] deals with T1, Glucose-6-phosphate 1-dehydrogenase (Homo sapiens, UniProt P11413). Nature of the data set: Inhibition of human recombinant N-terminal His tagged G6PD expressed in Escherichia coli JM109 (DE3) cells assessed as production of NADPH after 30 mins by Amplite fluorimetric assay.
The target of data set [2] is T1, Glucose-6-phosphate 1-dehydrogenase. Nature of the data set: Inhibition of G6PD in HEK293T cells assessed as accumulation of 6-phosphogluconate after 5 hrs by LC-MS/MS analysis using 6-aminonicotinamide. It counts as cell-based, HEK-293T.
Data set [3] shares this target. Nature of the data set: Ratio of IC50 for G6PD in HEK293T cells to IC50 for human recombinant G6PD expressed in Escherichia coli JM109 (DE3) cells. The note with it: HEK-293T.
Data set [4] can be described thus: Aqueous solubility of the compound in phosphate buffer by turbidimetric method. In kind it is physicochemical.
Data set [5] is described as follows: Half life in human liver microsomes. In kind it is ADME, Microsome. A general note: Liver microsomes are vesicles of endoplasmic reticulum, rich in cytochrome P450 enzymes.
Another data set is described as follows: in vitro. The note with it: human, liver microsomes.
Data set [6] in a line: Permeability of the compound from apical to basolateral side of human Caco2 cells. It counts as ADME, cell-based. The note with it: Caco-2, read-out: permeability. In general terms: Caco-2 monolayers are a common model of the intestinal barrier.
Data set [7] in a line: Efflux ratio of permeability of the compound from basolateral to apical side over apical to basolateral side of human Caco2 cells. In kind it is ADME, cell-based. The note with it: Caco-2.
In another data set the target is T2, Cytochrome P450 1A (Homo sapiens, UniProt P04798+P05177).
T2 sequence (P04798 whole entry): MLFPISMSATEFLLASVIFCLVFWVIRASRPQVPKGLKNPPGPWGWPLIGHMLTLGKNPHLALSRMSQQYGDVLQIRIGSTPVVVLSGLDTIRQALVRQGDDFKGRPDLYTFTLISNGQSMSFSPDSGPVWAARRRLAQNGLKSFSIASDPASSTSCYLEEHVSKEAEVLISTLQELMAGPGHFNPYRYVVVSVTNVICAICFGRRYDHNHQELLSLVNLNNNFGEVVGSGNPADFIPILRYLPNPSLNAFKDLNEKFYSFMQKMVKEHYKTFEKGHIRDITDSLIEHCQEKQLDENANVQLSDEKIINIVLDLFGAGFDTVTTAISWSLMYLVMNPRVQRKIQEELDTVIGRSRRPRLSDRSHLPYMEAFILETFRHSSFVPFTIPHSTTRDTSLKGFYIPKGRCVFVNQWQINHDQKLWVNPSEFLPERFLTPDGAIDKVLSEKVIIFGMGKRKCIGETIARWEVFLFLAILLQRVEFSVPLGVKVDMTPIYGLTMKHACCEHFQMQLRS
T2 sequence (P05177 whole entry): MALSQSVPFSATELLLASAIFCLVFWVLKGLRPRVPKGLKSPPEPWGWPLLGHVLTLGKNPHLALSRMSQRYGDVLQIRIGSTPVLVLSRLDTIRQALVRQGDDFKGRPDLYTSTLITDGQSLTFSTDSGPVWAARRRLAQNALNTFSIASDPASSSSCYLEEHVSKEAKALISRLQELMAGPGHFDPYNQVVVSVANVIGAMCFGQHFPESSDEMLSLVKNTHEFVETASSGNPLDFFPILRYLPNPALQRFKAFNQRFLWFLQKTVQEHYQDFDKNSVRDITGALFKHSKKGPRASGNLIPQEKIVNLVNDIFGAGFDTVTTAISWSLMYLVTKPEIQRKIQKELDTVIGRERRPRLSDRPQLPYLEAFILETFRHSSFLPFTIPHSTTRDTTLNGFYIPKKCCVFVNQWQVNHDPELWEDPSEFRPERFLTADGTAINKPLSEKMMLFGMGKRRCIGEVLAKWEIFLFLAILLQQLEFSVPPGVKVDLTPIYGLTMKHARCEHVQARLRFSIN
Nature of the data set: Inhibition of CYP1A at > 25 uM. In kind it is ADME.

For a further data set, the target named is Cytochrome P450 2C19 (Homo sapiens, UniProt P33261). Nature of the data set: Inhibition of CYP2C19 at > 25 uM. In kind it is ADME.
Sequence of Cytochrome P450 2C19 (P33261 whole entry): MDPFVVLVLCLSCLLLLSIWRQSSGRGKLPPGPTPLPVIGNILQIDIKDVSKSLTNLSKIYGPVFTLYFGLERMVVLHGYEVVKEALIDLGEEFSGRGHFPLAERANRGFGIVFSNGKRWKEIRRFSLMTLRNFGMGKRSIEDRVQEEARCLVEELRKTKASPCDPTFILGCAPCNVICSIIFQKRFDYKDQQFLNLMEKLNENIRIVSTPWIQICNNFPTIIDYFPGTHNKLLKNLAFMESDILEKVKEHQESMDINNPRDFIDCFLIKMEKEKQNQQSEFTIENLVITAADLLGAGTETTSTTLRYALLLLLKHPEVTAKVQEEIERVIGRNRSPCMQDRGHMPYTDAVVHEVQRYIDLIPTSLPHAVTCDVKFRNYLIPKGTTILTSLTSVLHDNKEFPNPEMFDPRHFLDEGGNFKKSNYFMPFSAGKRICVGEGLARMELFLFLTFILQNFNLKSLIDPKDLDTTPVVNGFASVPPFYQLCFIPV
In another data set the target is Cytochrome P450 2C9 (Homo sapiens, UniProt P11712). Nature of the data set: Inhibition of CYP2C9 at > 25 uM. It counts as ADME.
Sequence of Cytochrome P450 2C9 (P11712 whole entry): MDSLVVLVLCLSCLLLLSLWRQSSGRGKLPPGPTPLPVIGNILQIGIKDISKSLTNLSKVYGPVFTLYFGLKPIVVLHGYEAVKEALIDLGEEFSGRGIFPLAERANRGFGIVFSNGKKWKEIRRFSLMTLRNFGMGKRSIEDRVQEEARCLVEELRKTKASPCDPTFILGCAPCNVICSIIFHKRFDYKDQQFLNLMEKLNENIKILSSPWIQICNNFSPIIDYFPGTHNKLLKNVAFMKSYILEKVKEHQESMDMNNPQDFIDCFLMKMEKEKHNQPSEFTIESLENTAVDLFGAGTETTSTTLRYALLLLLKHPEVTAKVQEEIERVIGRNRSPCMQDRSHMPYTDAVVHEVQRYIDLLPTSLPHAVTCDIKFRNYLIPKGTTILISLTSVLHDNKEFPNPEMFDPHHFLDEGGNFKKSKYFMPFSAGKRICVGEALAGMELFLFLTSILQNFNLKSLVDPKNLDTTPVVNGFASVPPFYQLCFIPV
A further data set concerns the target Cytochrome P450 2D6 (Homo sapiens, UniProt P10635). Nature of the data set: Inhibition of CYP2D6 at > 25 uM. In kind it is ADME.
The target of another data set is Cytochrome P450 3A4 (Homo sapiens, UniProt P08684). The experiment in a line: Inhibition of CYP3A4 at > 25 uM. In kind it is ADME.
Sequence of Cytochrome P450 3A4 (P08684 whole entry): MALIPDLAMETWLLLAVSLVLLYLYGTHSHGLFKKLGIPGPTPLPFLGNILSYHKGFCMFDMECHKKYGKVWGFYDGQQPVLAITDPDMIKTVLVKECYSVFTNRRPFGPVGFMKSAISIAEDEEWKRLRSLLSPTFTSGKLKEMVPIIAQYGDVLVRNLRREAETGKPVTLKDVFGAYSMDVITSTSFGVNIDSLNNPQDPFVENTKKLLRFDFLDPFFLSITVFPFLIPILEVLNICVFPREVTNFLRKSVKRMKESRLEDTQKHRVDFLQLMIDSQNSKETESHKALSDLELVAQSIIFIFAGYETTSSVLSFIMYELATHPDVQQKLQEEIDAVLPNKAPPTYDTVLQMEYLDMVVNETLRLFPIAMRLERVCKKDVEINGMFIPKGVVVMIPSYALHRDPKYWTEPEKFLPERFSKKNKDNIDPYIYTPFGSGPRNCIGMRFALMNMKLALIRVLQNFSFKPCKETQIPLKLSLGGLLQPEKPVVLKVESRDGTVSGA

Converted amounts (≈) assume the structure as drawn. Bounds are passed on as bounds.

T1 sequence (P11413 whole entry): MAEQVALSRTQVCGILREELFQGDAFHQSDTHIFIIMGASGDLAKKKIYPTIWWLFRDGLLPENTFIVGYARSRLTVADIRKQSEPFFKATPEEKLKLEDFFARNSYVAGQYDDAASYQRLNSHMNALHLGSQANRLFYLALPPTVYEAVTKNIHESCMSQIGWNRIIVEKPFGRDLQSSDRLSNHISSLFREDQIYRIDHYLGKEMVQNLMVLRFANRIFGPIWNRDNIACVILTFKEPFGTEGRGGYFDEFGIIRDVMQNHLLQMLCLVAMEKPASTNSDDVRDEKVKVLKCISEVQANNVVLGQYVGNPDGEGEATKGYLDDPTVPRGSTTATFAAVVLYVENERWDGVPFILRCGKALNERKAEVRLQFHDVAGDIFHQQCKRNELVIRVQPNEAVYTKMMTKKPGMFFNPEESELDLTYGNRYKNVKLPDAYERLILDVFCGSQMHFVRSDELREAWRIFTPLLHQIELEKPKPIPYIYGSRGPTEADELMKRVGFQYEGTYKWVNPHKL
Sequence of Cytochrome P450 2D6 (P10635 whole entry): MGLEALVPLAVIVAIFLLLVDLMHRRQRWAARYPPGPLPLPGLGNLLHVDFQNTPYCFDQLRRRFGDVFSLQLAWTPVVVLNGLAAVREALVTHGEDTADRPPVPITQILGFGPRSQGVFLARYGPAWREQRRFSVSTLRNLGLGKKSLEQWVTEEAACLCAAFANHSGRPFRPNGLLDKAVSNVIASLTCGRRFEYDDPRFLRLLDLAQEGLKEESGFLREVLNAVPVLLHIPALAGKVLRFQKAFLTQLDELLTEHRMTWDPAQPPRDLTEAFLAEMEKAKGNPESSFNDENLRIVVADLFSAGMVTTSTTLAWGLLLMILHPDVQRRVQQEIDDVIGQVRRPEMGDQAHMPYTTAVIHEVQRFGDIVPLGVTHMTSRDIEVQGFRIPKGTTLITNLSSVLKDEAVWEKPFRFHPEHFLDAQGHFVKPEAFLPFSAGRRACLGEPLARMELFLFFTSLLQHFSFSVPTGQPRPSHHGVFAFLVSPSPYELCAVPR

Broadly, the IC50 is the concentration at which inhibition is half-maximal. One may read the solubility (kinetic) as solubility judged after dilution from a stock solution rather than from solid. What is called half-life is the time in which the quantity being followed falls by half. In general, microsomal CLint refers to a measure of how fast metabolising enzymes remove a compound, apart from limits set by blood flow. Low values mean slow turnover, high ones rapid turnover. For `CC(=O)[C@H]1CC[C@H]2[C@@H]3CC[C@H]4C[C@@H](NS(C)(=O)=O)CC[C@]4(C)[C@H]3CC[C@]12C`, the results for the IC50 in [1] and in [2] were 3.4 µM and 4.8 µM, respectively. Besides, in [3], the Ratio IC50 was found to be 1.4. In data set [4], the solubility (kinetic) came out at 3 µM (≈ 1.19 µg/mL). For the same molecule, the half-life in data set [5] worked out at 135 min. In “in vitro”, this molecule registered a microsomal CLint of 10.3 µL/min/mg.
For orientation: efflux ratio means the permeability from basolateral to apical divided by that in the opposite direction, in the common usage. With `C[C@]12CC[C@H](NS(N)(=O)=O)C[C@@H]1CC[C@@H]1[C@@H]2CC[C@]2(C)[C@@H](C(=O)CO)CC[C@@H]12`, the IC50 in data set [1] was 1.2 µM; in data set [2], 14.1 µM. The Ratio IC50 in data set [3] is 11.8. For the same molecule, in data set [4], the kinetic solubility was above 100 µM. The Papp A→B in data set [6] came out at 13.1 ×10⁻⁶ cm/s. Besides, in data set [7], the efflux ratio turned out to be 0.49. The same molecule had a half-life in [5] of 48.9 min. The molecule further displayed a microsomal CLint in the data set “in vitro” of 28.3 µL/min/mg.
Take `CCNC(=O)N[C@H]1CC[C@@]2(C)[C@@H](CC[C@@H]3[C@@H]2CC[C@]2(C)C(=O)CC[C@@H]32)C1`: the IC50 in data set [1] was 1 µM; in [2], 9.5 µM. Besides, in data set [3], the Ratio IC50 was determined as 9.5. The molecule further yielded a solubility (kinetic) in [4] of 30 µM (≈ 10.8 µg/mL). In addition, in [6], the Papp A→B is 31.6 ×10⁻⁶ cm/s. Also, in [7], the efflux ratio was 0.54. The same molecule yielded a half-life in data set [5] of 24.4 min. For the same molecule, the microsomal CLint in the data set “in vitro” stood at 56.8 µL/min/mg.
Turning to `C[C@]12CC[C@H](O)C[C@@H]1CC[C@@H]1[C@@H]2CC[C@]2(C)[C@@H](C(=O)CO)CC[C@@H]12`, the results for the IC50 in [1] and in data set [2] were 0.9 µM and 12.3 µM, respectively. For the same molecule, in data set [3], the Ratio IC50 was found to be 13.7. In addition, in data set [4], the solubility (kinetic) is above 100 µM. Besides, the “inhibition (INH)” value on Cytochrome P450 1A, on Cytochrome P450 2C19, on Cytochrome P450 2C9, against Cytochrome P450 2D6 and against Cytochrome P450 3A4 was “Not Active” each time.
